# Results taken from patent publication US9096595B2, “7-(heteroaryl-amino)-6,7,8,9-tetrahydropyrido[1,2-a]indol acetic acid derivatives and their use as prostaglandin D2 receptor modulators” (Actelion Pharmaceuticals Ltd, priority 2011, dated 2015).
# What was measured:
# hCRTH2 receptor [1] = molecular target: T1, hCRTH2 receptor (Homo sapiens (Human), UniProt Q9Y5Y4); assay: Radioligand displacement assay in presence of human serum albumin (HSA); settings: 3H-PGD2 2.5 nM, HEK293-hCRTH2 membrane fragments, Binding-Buffer-HSA with 0.5% human serum albumin instead of 0.1% BSA
# Experimental: (§1) First, recombinant HEK293-hCRTH2 cells were detached from culture plates into 5 ml buffer A/plate (Buffer A: 5 mM Tris, 1 mM MgCl2-6H2O pH=7.4) using a rubber policeman. Cells were then transferred into centrifugation tubes and centrifuged for 5 min at 400 g. The cell pellet was resuspended in the same buffer and tubes were frozen at −80° C. Cells were thawed and membrane fragments were generated by homogenization using a polytron homogenizer (30 seconds). The membrane fragments were then centrifuged at 3000 g for 20 minutes and resuspended in buffer C (Buffer C: 75 mM Tris, 25 mM MgCl2, 250 mM Saccharose pH 7.4). Aliquots of membrane fragments were stored at −20° C.
# (§2) Binding assay was performed in a final assay volume of 250 μl. First, 25 μl of test compound, previously diluted in Binding-Buffer (Binding-Buffer: 50 mM Tris-Base, 100 mM NaCl, 1 mM EDTA, 0.1% BSA (protease free), 0.01% NaN3, 10 mM MnCl2 pH 7.0) was placed into each well. After addition of 75 μl Binding-Buffer, 50 μl of the radioligand ^3H-PGD2 (at 2.5 nM (220.000 dpm/well) from ANAWA ART0662) was added to each well. Binding assay was started by addition of 100 μl CRTH2 membrane fragments, reaching a final concentration of 20 μg/well. For non-specific binding, PGD2 was added to the reaction mixture to […] final concentration. This assay mix was incubated for 90 minutes at room temperature and then filtered through a GF/C filter 96-well plate which was pre-soaked for 3 hours in 0.5% polyethyleneimine (PEI). The filter-wells were washed three times with ice cold Binding-Buffer. Then, 40 μl of Microscint-40 (Packard) was added to each well and the retained radioactivity quantified in a Topcount (Packard).
# Radioligand displacement assay in presence of human serum albumin (HSA) was performed as described above, with following modifications. Binding-Buffer-HSA: Binding-buffer+0.5% Sigma Albumin from Human serum A1887 (instead of 0.1% BSA). A volume of 25 μl test compound, previously diluted in Binding-Buffer-HSA was placed into each well. After addition of 75 μl Binding-Buffer-HSA, 50 μl of ^3H-PGD2 (at 2.5 nM (220.000 dpm/well) from ANAWA ART0662) was added to each well. Remaining protocol was identical as described above.
# hCRTH2 receptor [2] = molecular target: T1, hCRTH2 receptor; assay: hCRTH2 receptor membranes radioligand (3H-PGD2) displacement assay; settings: 3H-PGD2 2.5 nM, HEK293-hCRTH2 membrane fragments, Binding-Buffer with 0.1% BSA
# Experimental: as §1, §2
# T1 sequence (Q9Y5Y4 whole entry, the tested form may be a part): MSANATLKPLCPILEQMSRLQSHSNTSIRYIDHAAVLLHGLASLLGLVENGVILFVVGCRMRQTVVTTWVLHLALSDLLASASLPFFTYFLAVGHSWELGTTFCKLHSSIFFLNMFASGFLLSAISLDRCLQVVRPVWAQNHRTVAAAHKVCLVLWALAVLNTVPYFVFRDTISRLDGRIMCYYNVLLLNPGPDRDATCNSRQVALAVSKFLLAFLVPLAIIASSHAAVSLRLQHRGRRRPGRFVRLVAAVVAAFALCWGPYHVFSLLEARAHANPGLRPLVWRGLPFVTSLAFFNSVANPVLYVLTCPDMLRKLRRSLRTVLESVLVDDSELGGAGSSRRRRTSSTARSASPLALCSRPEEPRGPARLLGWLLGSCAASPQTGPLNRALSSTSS
SMILES,IC50 (hCRTH2 receptor [1]) [nM],IC50 (hCRTH2 receptor [2]) [nM]
"CN(c1ncc(Cl)cn1)C1CCc2c(CC(=O)O)c3ccccc3n2C1 (centres unmarked) [Example 1, 2-(7-((5-chloropyrimidin-2-yl)(methyl)amino)-6,7,8,9-tetrahydropyrido[1,2-a]indol-10-yl)acetic acid]",66,21
"CN(c1ncc(F)cn1)C1CCc2c(CC(=O)O)c3ccccc3n2C1 (centres unmarked) [Example 2, 2-(7-((5-fluoropyrimidin-2-yl)(methyl)amino)-6,7,8,9-tetrahydropyrido[1,2-a]indol-10-yl)acetic acid]",29,9
"CN(c1ncc(C(F)(F)F)cn1)C1CCc2c(CC(=O)O)c3ccccc3n2C1 (centres unmarked) [Example 3, 2-(7-(methyl(5-(trifluoromethyl)pyrimidin-2-yl)amino)-6,7,8,9-tetrahydropyrido[1,2-a]indol-10-yl)acetic acid]",152,8
"CN(c1nc2ccc(F)cc2s1)C1CCc2c(CC(=O)O)c3ccccc3n2C1 (centres unmarked) [Example 4, 2-(7-((6-fluorobenzo[d]thiazol-2-yl)(methyl)amino)-6,7,8,9-tetrahydropyrido[1,2-a]indol-10-yl)acetic acid]",43,9
"CN(c1nc2cc(F)ccc2o1)C1CCc2c(CC(=O)O)c3ccccc3n2C1 (centres unmarked) [Example 5, 2-(7-((5-fluorobenzo[d]oxazol-2-yl)(methyl)amino)-6,7,8,9-tetrahydropyrido[1,2-a]indol-10-yl)acetic acid]",24,16
"CN(c1nc2cc(F)ccc2s1)C1CCc2c(CC(=O)O)c3ccccc3n2C1 (centres unmarked) [Example 6, 2-(7-((5-fluorobenzo[d]thiazol-2-yl)(methyl)amino)-6,7,8,9-tetrahydropyrido[1,2-a]indol-10-yl)acetic acid]",59,92
"CN(c1ncc(F)cn1)C1CCc2c(CC(=O)O)c3cc(F)ccc3n2C1 (centres unmarked) [Example 7, 2-(2-fluoro-7-((5-fluoropyrimidin-2-yl)(methyl)amino)-6,7,8,9-tetrahydropyrido[1,2-a]indol-10-yl)acetic acid]",119,17
"CN(c1nc2cc(F)ccc2o1)C1CCc2c(CC(=O)O)c3cc(F)ccc3n2C1 (centres unmarked) [Example 8, 2-(2-fluoro-7-((5-fluorobenzo[d]oxazol-2-yl)(methyl)amino)-6,7,8,9-tetrahydropyrido[1,2-a]indol-10-yl)acetic acid]",123,12
"CN(c1ncc(F)cn1)C1CCc2c(CC(=O)O)c3ccc(F)cc3n2C1 (centres unmarked) [Example 9, 2-(3-fluoro-7-((5-fluoropyrimidin-2-yl)(methyl)amino)-6,7,8,9-tetrahydropyrido[1,2-a]indol-10-yl)acetic acid]",10,1
"CN(c1nc2cc(F)ccc2o1)C1CCc2c(CC(=O)O)c3ccc(F)cc3n2C1 (centres unmarked) [Example 10, 2-(3-fluoro-7-((5-fluorobenzo[d]oxazol-2-yl)(methyl)amino)-6,7,8,9-tetrahydropyrido[1,2-a]indol-10-yl)acetic acid]",7,0.7
"COc1ccc2c(c1)c(CC(=O)O)c1n2CC(N(C)c2ncc(F)cn2)CC1 (centres unmarked) [Example 11, 2-(7-((5-fluoropyrimidin-2-yl)(methyl)amino)-2-methoxy-6,7,8,9-tetrahydropyrido[1,2-a]indol-10-yl)acetic acid]",,420
"COc1ccc2c(c1)c(CC(=O)O)c1n2CC(N(C)c2nc3cc(F)ccc3o2)CC1 (centres unmarked) [Example 12, 2-(7-((5-fluorobenzo[d]oxazol-2-yl)(methyl)amino)-2-methoxy-6,7,8,9-tetrahydropyrido[1,2-a]indol-10-yl)acetic acid]",,231
"Cc1ccc2c(c1)c(CC(=O)O)c1n2CC(N(C)c2ncc(F)cn2)CC1 (centres unmarked) [Example 13, 2-(7-((5-fluoropyrimidin-2-yl)(methyl)amino)-2-methyl-6,7,8,9-tetrahydropyrido[1,2-a]indol-10-yl)acetic acid]",,417
"Cc1ccc2c(c1)c(CC(=O)O)c1n2CC(N(C)c2nc3cc(F)ccc3o2)CC1 (centres unmarked) [Example 14, 2-(7-((5-fluorobenzo[d]oxazol-2-yl)(methyl)amino)-2-methyl-6,7,8,9-tetrahydropyrido[1,2-a]indol-10-yl)acetic acid]",> 1000,42
"CN(c1ncc(F)cn1)C1CCc2c(CC(=O)O)c3cc(Cl)ccc3n2C1 (centres unmarked) [Example 15, 2-(2-chloro-7-((5-fluoropyrimidin-2-yl)(methyl)amino)-6,7,8,9-tetrahydropyrido[1,2-a]indol-10-yl)acetic acid]",,136
"CN(c1nc2cc(F)ccc2o1)C1CCc2c(CC(=O)O)c3cc(Cl)ccc3n2C1 (centres unmarked) [Example 16, 2-(2-chloro-7-((5-fluorobenzo[d]oxazol-2-yl)(methyl)amino)-6,7,8,9-tetrahydropyrido[1,2-a]indol-10-yl)acetic acid]",> 1000,21
"CN(c1ncc(Cl)cn1)C1CCc2c(CC(=O)O)c3ccc(F)cc3n2C1 (centres unmarked) [Example 17, 2-(7-((5-chloropyrimidin-2-yl)(methyl)amino)-3-fluoro-6,7,8,9-tetrahydropyrido[1,2-a]indol-10-yl)acetic acid]",46,4
"CN(c1ncc(C(F)(F)F)cn1)C1CCc2c(CC(=O)O)c3ccc(F)cc3n2C1 (centres unmarked) [Example 18, 2-(3-fluoro-7-(methyl(5-(trifluoromethyl)pyrimidin-2-yl)amino)-6,7,8,9-tetrahydropyrido[1,2-a]indol-10-yl)acetic acid]",71,6
"CN(c1nc2cc(F)ccc2s1)C1CCc2c(CC(=O)O)c3ccc(F)cc3n2C1 (centres unmarked) [Example 19, 2-(3-fluoro-7-((5-fluorobenzo[d]thiazol-2-yl)(methyl)amino)-6,7,8,9-tetrahydropyrido[1,2-a]indol-10-yl)acetic acid]",,51
"CN(c1nc2ccc(F)cc2o1)C1CCc2c(CC(=O)O)c3ccc(F)cc3n2C1 (centres unmarked) [Example 20, 2-(3-fluoro-7-((6-fluorobenzo[d]oxazol-2-yl)(methyl)amino)-6,7,8,9-tetrahydropyrido[1,2-a]indol-10-yl)acetic acid]",20,1
"CN(c1ncc(Cl)cn1)C1CCc2c(CC(=O)O)c3ccc(Cl)cc3n2C1 (centres unmarked) [Example 21, 2-(3-chloro-7-((5-chloropyrimidin-2-yl)(methyl)amino)-6,7,8,9-tetrahydropyrido[1,2-a]indol-10-yl)acetic acid]",31,7
"CN(c1ncc(Cl)cn1)C1CCc2c(CC(=O)O)c3ccc(C(F)(F)F)cc3n2C1 (centres unmarked) [Example 22, 2-(7-((5-chloropyrimidin-2-yl)(methyl)amino)-3-(trifluoromethyl)-6,7,8,9-tetrahydropyrido[1,2-a]indol-10-yl)acetic acid]",38,9
"CN(c1ncc(Cl)cn1)C1CCc2c(CC(=O)O)c3cc(OC(F)(F)F)ccc3n2C1 (centres unmarked) [Example 23, 2-(7-((5-chloropyrimidin-2-yl)(methyl)amino)-2-(trifluoromethoxy)-6,7,8,9-tetrahydropyrido[1,2-a]indol-10-yl)acetic acid]",,354
"CN(c1ncc(F)cn1)C1CCc2c(CC(=O)O)c3cc(OC(F)(F)F)ccc3n2C1 (centres unmarked) [Example 25, 2-(7-((5-fluoropyrimidin-2-yl)(methyl)amino)-2-(trifluoromethoxy)-6,7,8,9-tetrahydropyrido[1,2-a]indol-10-yl)acetic acid]",,141
"CN(c1nc2ccc(F)cc2s1)C1CCc2c(CC(=O)O)c3cc(OC(F)(F)F)ccc3n2C1 (centres unmarked) [Example 27, 2-(7-((6-fluorobenzo[d]thiazol-2-yl)(methyl)amino)-2-(trifluoromethoxy)-6,7,8,9-tetrahydropyrido[1,2-a]indol-10-yl)acetic acid]",,812
"CN(c1nc2cc(F)ccc2o1)C1CCc2c(CC(=O)O)c3cc(OC(F)(F)F)ccc3n2C1 (centres unmarked) [Example 29, 2-(7-((5-fluorobenzo[d]oxazol-2-yl)(methyl)amino)-2-(trifluoromethoxy)-6,7,8,9-tetrahydropyrido[1,2-a]indol-10-yl)acetic acid]",,964
"Cc1nc(N(C)C2CCc3c(CC(=O)O)c4ccc(Cl)cc4n3C2)c2ccccc2n1 (centres unmarked) [Example 42, 2-(3-chloro-7-(methyl(2-methylquinazolin-4-yl)amino)-6,7,8,9-tetrahydropyrido[1,2-a]indol-10-yl)acetic acid]",,71
